Laboratory results as given in patent US9101620B2, “Polymorph of 3-(substituteddihydroisoindolinone-2-yl)-2,6-dioxopiperidine, and pharmaceutical compositions thereof” (Nanjing Cavendish Bio-Engineering Technology Co., Ltd., priority 2009, dated 2015).

Columns and labels:
Format in all cases: physicochemical
[1] = Oxidation destruction (30% H2O2), related substances by HPLC; details: for Major impurity, peak tR5.649-5.660 / Major impurity, peak tR10.372-10.401 / Major impurity, peak tR32.279-32.318 / Major impurity, peak tR35.063-35.098 / Total impurities generated by oxidation destruction: 30% H2O2, room temperature, 2 hour; for Chemical stability (in words): oxidating condition / oxidation destroy experiment
Method: (§1) Oxidation destruction: 50 mg of sample weighted accurately was added into measuring flask of 100 mL, and 10 mL 30% H2O2 was added. After standing at room temperature for 2 hour, the mixture was diluted with mobile phase to scale and shook to be homogeneous, and determined by HPLC.
(§2) HPLC conditions and system applicability: octadecylsilane bonded silica as the filler; 0.01 mol/L of potassium dihydrogen phosphate (adjusted to pH 3.5 by phosphoric acid)-methanol-acetonitrile (80:15:5) as the mobile phase; detection wavelength was 240 nm; the number of theoretical plates should be not less than 2000, calculated according to the peak of lenalidomide. The resolution of the peak of 3-(4-amino-1-oxo-1,3-dihydro-2H-isoindole-2-yl)-piperidine-2,6-dione from the peaks of adjacent impurities should meet requirements.
(§3) Determination method: sample was dissolved in mobile phase to be the solution containing 0.5 mg per 1 mL. 20 μL of such solution was injected into liquid chromatograph and chromatogram was recorded until fourfold the retention time of major component peak. If there were impurities peaks in the chromatogram of sample solution, total impurities and sole impurity were calculated by normalization method on the basis of peak area.

[2] = Destruction test: impurities in raw materials before destruction (HPLC); details: for Total impurities in raw materials before destruction: HPLC peak area normalization
From the text: The methods of destruction experiment of the Polymorph I of this invention (hereinafter referred to as “Polymorph I”) contrasting with the Polymorph A and B of 3-(4-amino-1-oxo-1,3-dihydro-2H-isoindole-2-yl)-piperidine-2,6-dione prepared by the method in CN 1871003A (hereinafter referred to as “Polymorph A” and “polymorph B”) and results of stability are followed:
as §2, §3

[3] = Acid destruction (0.1 mol/L HCl), related substances by HPLC; details: for Major impurity, peak tR4.717-4.737 / Major impurity, peak tR7.367-7.381 / Major impurity, peak tR11.067-11.100 / Total impurities generated by 0.1 mol/L acid destruction for 1 hour: 0.1 mol/L HCl, room temperature, 1 hour; for Chemical stability (in words): acid condition / 0.1 mol/L diluted HCl solution
Method: as §1, with “Acid” for “Oxidation”, “0.1 mol/L HCl solution” for “30% H2O2”, “1” for “2”, “hour, an equal amount of 0.1 mol/L NaOH solution was added for neutralization. Then” for “hour,”
as §2, §3

Row | Major impurity, peak tR5.649-5.660 [1] | Major impurity, peak tR10.372-10.401 [1] | Major impurity, peak tR32.279-32.318 [1] | Major impurity, peak tR35.063-35.098 [1] | Total impurities generated by oxidation destruction [1] | Chemical stability (in words) [1] | Major impurity, peak tR5.872-5.948 [2] | Major impurity, peak tR6.847-6.855 [2] | Major impurity, peak tR10.961-11.165 [2] | Total impurities in raw materials before destruction [2] | Major impurity, peak tR4.717-4.737 [3] | Major impurity, peak tR7.367-7.381 [3] | Major impurity, peak tR11.067-11.100 [3] | Total impurities generated by 0.1 mol/L acid destruction for 1 hour [3] | Chemical stability (in words) [3] | SMILES
1 | 0.39% | 0.08% | 0.08% | 0.14% | impurities: 0.82% | poor chemical stability | 0.01% | 0.01% | 0.04% | impurities: 0.06% | 0.33% | 0.72% | 0.04% | impurities: 1.13% | poor chemical stability | Nc1cccc2c1CN(C1CCC(=O)NC1=O)C2=O (single isomer, unassigned) [Polymorph A, 3-(4-amino-1-oxo-1,3-dihydro-2H-isoindole-2-yl)-piperidine-2,6-dione]
2 | 0.36% | 0.11% | 0.10% | 0.13% | impurities: 0.89% | poor chemical stability | 0.01% | 0.01% | 0.05% | impurities: 0.07% | 0.33% | 0.72% | 0.04% | impurities: 1.22% | poor chemical stability | Nc1cccc2c1CN(C1CCC(=O)NC1=O)C2=O (single isomer, unassigned) [Polymorph B, 3-(4-amino-1-oxo-1,3-dihydro-2H-isoindole-2-yl)-piperidine-2,6-dione]
